Data on one compound can be found in ChEMBL document CHEMBL4007467, “Effects of 6-paradol, an unsaturated ketone from gingers, on cytochrome P450-mediated drug metabolism” (Bioorg Med Chem Lett, 2017).

Format in all cases: ADME
For one series, the target named is T1, CYP1A2 (Homo sapiens, UniProt P05177).
T1 sequence (P05177 whole entry): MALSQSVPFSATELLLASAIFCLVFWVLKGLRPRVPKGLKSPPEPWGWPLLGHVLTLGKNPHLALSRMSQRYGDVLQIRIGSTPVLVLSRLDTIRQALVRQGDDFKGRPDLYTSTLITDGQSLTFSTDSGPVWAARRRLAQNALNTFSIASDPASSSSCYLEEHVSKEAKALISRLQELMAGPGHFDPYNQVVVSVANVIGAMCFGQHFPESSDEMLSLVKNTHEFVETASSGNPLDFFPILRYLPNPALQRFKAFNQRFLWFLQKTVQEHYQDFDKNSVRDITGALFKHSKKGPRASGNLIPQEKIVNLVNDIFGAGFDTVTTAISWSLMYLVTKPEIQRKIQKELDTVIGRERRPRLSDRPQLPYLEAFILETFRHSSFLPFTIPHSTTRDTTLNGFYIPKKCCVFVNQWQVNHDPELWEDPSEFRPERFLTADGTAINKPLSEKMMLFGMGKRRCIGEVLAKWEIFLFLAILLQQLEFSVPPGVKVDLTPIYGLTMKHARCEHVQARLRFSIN
Nature of the series: Inhibition of CYP1A2 in human liver microsomes assessed as enzyme-mediated metabolite formation at 0.1 uM using phenacetin as substrate incubated for 5 mins followed by NADPH addition measured after 30 mins by LC-MS/MS analysis relative to control. Set-up: scale not given: the % may be the effect or the level left. As to conditions: probe phenacetin, read-out: Activity.

Another series concerns the target T2, CYP2A6 (Homo sapiens, UniProt P11509).
T2 sequence (P11509 whole entry): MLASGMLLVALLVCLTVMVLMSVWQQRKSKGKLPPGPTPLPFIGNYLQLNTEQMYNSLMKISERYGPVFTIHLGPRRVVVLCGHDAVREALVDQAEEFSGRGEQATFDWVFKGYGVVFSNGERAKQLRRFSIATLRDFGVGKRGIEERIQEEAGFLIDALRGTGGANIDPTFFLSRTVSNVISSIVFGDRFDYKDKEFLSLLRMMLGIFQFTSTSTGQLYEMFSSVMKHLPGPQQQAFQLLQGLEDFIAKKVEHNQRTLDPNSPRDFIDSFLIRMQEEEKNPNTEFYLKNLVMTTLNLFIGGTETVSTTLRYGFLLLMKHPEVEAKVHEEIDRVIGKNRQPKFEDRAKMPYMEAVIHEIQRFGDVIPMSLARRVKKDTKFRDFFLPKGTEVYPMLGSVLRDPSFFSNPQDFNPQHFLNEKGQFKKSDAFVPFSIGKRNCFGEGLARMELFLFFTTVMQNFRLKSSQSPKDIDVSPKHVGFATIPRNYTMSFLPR
Nature of the series: Inhibition of CYP2A6 in human liver microsomes assessed as enzyme-mediated metabolite formation at 0.1 uM using coumarin as substrate incubated for 5 mins followed by NADPH addition measured after 30 mins by LC-MS/MS analysis relative to control. The settings on record: probe coumarin, read-out: Activity. On the set-up: scale not given: the % may be the effect or the level left. A general note: Liver microsomes are vesicles of endoplasmic reticulum, rich in cytochrome P450 enzymes.

A further series has as its target CYP2C9 (Homo sapiens, UniProt P11712). Nature of the series: Inhibition of CYP2C9 in human liver microsomes assessed as enzyme-mediated metabolite formation at 1 uM using diclofenac as substrate incubated for 5 mins followed by NADPH addition measured after 30 mins by LC-MS/MS analysis relative to control. On the set-up: scale not given: the % may be the effect or the level left. The settings on record: probe diclofenac, read-out: Activity.

For series [1], the target named is T3, CYP3A4 (Homo sapiens, UniProt P08684). Nature of the series: Inhibition of CYP3A4 in human liver microsomes assessed as enzyme-mediated metabolite formation at 30 uM using testosterone as substrate incubated for 5 mins followed by NADPH addition measured after 30 mins by LC-MS/MS analysis relative to control. On the set-up: scale not given: the % may be the effect or the level left. As to conditions: probe testosterone, read-out: Activity.

For a further series, the target named is Cytochrome P450 3A4 (Homo sapiens, UniProt P08684). Nature of the series: Inhibition of CYP3A4 in human liver microsomes assessed as enzyme-mediated metabolite formation using testosterone as substrate incubated for 5 mins followed by NADPH addition measured after 30 mins by LC-MS/MS analysis.
Series [2] addresses T4, CYP2B6 (Homo sapiens, UniProt P20813).
T4 sequence (P20813 whole entry): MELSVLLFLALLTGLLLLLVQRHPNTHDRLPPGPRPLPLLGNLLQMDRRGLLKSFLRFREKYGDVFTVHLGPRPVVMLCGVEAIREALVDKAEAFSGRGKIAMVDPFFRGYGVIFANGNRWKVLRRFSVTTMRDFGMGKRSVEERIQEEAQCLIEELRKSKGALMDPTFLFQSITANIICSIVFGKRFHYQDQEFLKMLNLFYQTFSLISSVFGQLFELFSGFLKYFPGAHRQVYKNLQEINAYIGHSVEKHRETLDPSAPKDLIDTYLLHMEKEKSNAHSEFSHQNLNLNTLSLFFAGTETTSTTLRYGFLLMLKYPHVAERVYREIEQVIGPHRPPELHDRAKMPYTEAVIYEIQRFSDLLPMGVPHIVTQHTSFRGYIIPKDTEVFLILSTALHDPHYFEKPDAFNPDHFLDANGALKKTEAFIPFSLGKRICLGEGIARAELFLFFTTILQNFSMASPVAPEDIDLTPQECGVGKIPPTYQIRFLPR
Nature of the series: Inhibition of CYP2B6 in human liver microsomes assessed as enzyme-mediated metabolite formation at 0.1 uM using bupropion as substrate preincubated for 20 mins followed by substrate addition measured after 30 mins in presence of NADPH by LC-MS/MS analysis relative to control. Set-up: scale not given: the % may be the effect or the level left. As to conditions: probe bupropion, read-out: Activity.

Series [3] has as its target T4, CYP2B6. Nature of the series: Inhibition of CYP2B6 in human liver microsomes assessed as enzyme-mediated metabolite formation at 3 uM using bupropion as substrate preincubated for 20 mins followed by substrate addition measured after 30 mins in presence of NADPH by LC-MS/MS analysis relative to control. On the set-up: scale not given: the % may be the effect or the level left. The settings on record: probe bupropion, read-out: Activity.

The target in another series is CYP2D6 (Homo sapiens, UniProt P10635). Nature of the series: Inhibition of CYP2D6 in human liver microsomes assessed as enzyme-mediated metabolite formation at 1 uM using dextromethorphan as substrate preincubated for 20 mins followed by substrate addition measured after 30 mins in presence of NADPH by LC-MS/MS analysis relative to control. The settings on record: probe dextromethorphan, read-out: Activity. Set-up: scale not given: the % may be the effect or the level left.

Series [4] deals with T3, CYP3A4. Nature of the series: Inhibition of CYP3A4 in human liver microsomes assessed as enzyme-mediated metabolite formation at 0.1 uM using midazolam as substrate preincubated for 20 mins followed by substrate addition measured after 30 mins in presence of NADPH by LC-MS/MS analysis relative to control. Set-up: scale not given: the % may be the effect or the level left. The settings on record: probe midazolam, read-out: Activity.

Series [5] concerns the target T3, CYP3A4. Nature of the series: Inhibition of CYP3A4 in human liver microsomes assessed as enzyme-mediated metabolite formation at 10 uM using midazolam as substrate preincubated for 20 mins followed by substrate addition measured after 30 mins in presence of NADPH by LC-MS/MS analysis relative to control. Set-up: scale not given: the % may be the effect or the level left. As to conditions: probe midazolam, read-out: Activity.

T3 sequence (P08684 whole entry): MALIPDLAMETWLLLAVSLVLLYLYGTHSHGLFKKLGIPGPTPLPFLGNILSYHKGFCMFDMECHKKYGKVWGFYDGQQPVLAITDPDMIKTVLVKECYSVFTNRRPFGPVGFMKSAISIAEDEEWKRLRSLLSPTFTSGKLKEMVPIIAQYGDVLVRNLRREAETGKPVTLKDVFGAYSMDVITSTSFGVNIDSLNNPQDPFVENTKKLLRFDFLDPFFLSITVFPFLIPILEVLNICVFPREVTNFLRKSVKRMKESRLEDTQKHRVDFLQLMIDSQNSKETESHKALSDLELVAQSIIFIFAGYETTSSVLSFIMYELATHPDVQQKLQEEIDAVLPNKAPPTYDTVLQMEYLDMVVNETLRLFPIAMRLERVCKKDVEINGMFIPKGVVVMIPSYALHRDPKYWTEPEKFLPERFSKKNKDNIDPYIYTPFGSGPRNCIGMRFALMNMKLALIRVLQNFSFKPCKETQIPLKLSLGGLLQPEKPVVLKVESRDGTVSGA
Chain of Cytochrome P450 3A4 (P08684 whole entry): as above
Chain of CYP2D6 (P10635 whole entry): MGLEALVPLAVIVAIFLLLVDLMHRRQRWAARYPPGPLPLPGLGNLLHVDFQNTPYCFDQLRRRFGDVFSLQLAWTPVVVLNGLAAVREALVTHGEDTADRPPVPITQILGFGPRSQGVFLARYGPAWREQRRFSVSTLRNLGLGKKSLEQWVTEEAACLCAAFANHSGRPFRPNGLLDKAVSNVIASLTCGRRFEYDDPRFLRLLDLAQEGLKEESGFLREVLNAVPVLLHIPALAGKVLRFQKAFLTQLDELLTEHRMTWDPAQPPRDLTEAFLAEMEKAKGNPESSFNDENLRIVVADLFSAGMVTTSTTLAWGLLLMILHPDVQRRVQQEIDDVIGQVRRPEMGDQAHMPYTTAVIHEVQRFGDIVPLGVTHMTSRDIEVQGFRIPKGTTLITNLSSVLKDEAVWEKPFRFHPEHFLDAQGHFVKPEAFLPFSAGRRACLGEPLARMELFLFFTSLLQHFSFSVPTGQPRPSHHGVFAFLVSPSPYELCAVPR
Chain of CYP2C9 (P11712 whole entry): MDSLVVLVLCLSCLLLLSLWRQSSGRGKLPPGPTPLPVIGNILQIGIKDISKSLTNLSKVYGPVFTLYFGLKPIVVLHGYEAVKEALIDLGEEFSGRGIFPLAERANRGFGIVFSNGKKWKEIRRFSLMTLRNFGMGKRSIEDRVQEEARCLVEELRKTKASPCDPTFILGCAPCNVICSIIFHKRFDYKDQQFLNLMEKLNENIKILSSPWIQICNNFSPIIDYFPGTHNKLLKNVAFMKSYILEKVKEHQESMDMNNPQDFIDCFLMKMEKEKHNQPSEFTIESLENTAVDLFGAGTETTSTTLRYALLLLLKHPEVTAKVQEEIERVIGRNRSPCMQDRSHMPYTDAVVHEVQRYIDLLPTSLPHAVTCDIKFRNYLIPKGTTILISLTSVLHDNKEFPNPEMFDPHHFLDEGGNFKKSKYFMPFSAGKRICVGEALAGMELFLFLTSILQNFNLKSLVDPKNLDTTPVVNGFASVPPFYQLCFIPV

As usually defined, the IC50 is the concentration needed to halve the response being measured. As for `CCCCCCCC(=O)CCc1ccc(O)c(OC)c1`, the activity at 0.5 h, 0.1 µM at CYP1A2 came to 100%; at CYP2A6, 103%; on CYP2B6 [2], 88.5%; on CYP3A4 [4], 96.3%. For the same compound, the figures for the activity at 0.5 h, 1 µM on CYP2C9 and at CYP2D6 were 76.6% and 92.2%, respectively. Moreover, at CYP3A4 [1], the activity at 0.5 h, 30 µM was determined as 48.6%. The IC50 at Cytochrome P450 3A4 came to 30 µM. The activity at 0.5 h, 3 µM at CYP2B6 [3] worked out at 77.3%. At CYP3A4 [5], the activity at 0.5 h, 10 µM amounted to 110%.
